According to patent US20150141381A1, “TETRACYCLINE COMPOUNDS HAVING TARGET THERAPEUTIC ACTIVITIES” (Paratek Pharmaceuticals, Inc., priority 2001, published 2015):

Key:
[1] = system: E. coli mL308 225; assay: In Vitro Anti-Bacterial Activity Assay (MIC), gram negative; assay type: cell-based; details: Escherichia coli, ML308225, 18 h, gram negative bacteria; read-out: Antibiotic Activity Gram − (MIC)
[2] = system: S. aureus RN450; assay: In Vitro Anti-Bacterial Activity Assay (MIC), gram positive; assay type: cell-based; details: Staphylococcus aureus, RN450, 18 h, gram positive bacteria; read-out: Antibiotic Activity Gram + (MIC)

Structure (SMILES) | MIC [1] [µg/mL] | MIC [2] [µg/mL]
C[C@H]1c2c(N)cc(I)c(O)c2C(=O)C2=C(O)[C@]3(O)C(=O)C(C(N)=O)=C(O)[C@@H](N(C)C)[C@@H]3[C@@H](O)[C@@H]21 | > 4 | > 4
CN(C)[C@@H]1C(O)=C(C(N)=O)C(=O)[C@@]2(O)C(O)=C3C(=O)c4c(ccc(CNCCC(F)(F)F)c4O)C[C@H]3C[C@@H]12 | < 4 | < 4
CN(C)c1cc(CN2CCC3(CC2)OCCO3)c(O)c2c1C[C@H]1C[C@H]3[C@H](N(C)C)C(O)=C(C(N)=O)C(=O)[C@@]3(O)C(O)=C1C2=O | < 4 | < 4
CN(C)c1cc(CN2CCC(C(F)(F)F)CC2)c(O)c2c1C[C@H]1C[C@H]3[C@H](N(C)C)C(O)=C(C(N)=O)C(=O)[C@@]3(O)C(O)=C1C2=O | < 4 | < 4
CN(C)c1cc(CNCc2ccc(F)cc2)c(O)c2c1C[C@H]1C[C@H]3[C@H](N(C)C)C(O)=C(C(N)=O)C(=O)[C@@]3(O)C(O)=C1C2=O | < 4 | < 4
C[C@H]1c2ccc(CN3CCC(F)(F)CC3)c(O)c2C(=O)C2=C(O)[C@]3(O)C(=O)C(C(N)=O)=C(O)[C@@H](N(C)C)[C@@H]3[C@@H](O)[C@@H]21 | < 4 | < 4
C[C@H]1c2ccc(CNCCC(F)(F)F)c(O)c2C(=O)C2=C(O)[C@]3(O)C(=O)C(C(N)=O)=C(O)[C@@H](N(C)C)[C@@H]3[C@@H](O)[C@@H]21 | < 4 | < 4
CN(C)c1cc(CNNCC(F)(F)F)c(O)c2c1C[C@H]1C[C@H]3[C@H](N(C)C)C(O)=C(C(N)=O)C(=O)[C@@]3(O)C(O)=C1C2=O | > 4 | < 4
CCN(Cc1ccccc1)Cc1cc(N(C)C)c2c(c1O)C(=O)C1=C(O)[C@]3(O)C(=O)C(C(N)=O)=C(O)[C@@H](N(C)C)[C@@H]3C[C@@H]1C2 | < 4 | < 4
CN(C)c1cc(CN(Cc2ccccc2)CC(F)(F)F)c(O)c2c1C[C@H]1C[C@H]3[C@H](N(C)C)C(O)=C(C(N)=O)C(=O)[C@@]3(O)C(O)=C1C2=O | > 4 | < 4
CNC(=O)C1CCN(Cc2cc(N(C)C)c3c(c2O)C(=O)C2=C(O)[C@]4(O)C(=O)C(C(N)=O)=C(O)[C@@H](N(C)C)[C@@H]4C[C@@H]2C3)CC1 | < 4 | < 4
CC1CN(Cc2cc(N(C)C)c3c(c2O)C(=O)C2=C(O)[C@]4(O)C(=O)C(C(N)=O)=C(O)[C@@H](N(C)C)[C@@H]4C[C@@H]2C3)CC(C)O1 (some centres unmarked) | < 4 | < 4
CN(C)c1cc(CN2CCCC2C(F)(F)F)c(O)c2c1C[C@H]1C[C@H]3[C@H](N(C)C)C(O)=C(C(N)=O)C(=O)[C@@]3(O)C(O)=C1C2=O (some centres unmarked) | < 4 | < 4
COCC(C)CN(C)Cc1cc(N(C)C)c2c(c1O)C(=O)C1=C(O)[C@]3(O)C(=O)C(C(N)=O)=C(O)[C@@H](N(C)C)[C@@H]3C[C@@H]1C2 (some centres unmarked) | > 4 | < 4
CC1OC(=O)NC1COC(=O)N(Cc1cc(N(C)C)c2c(c1O)C(=O)C1=C(O)[C@]3(O)C(=O)C(C(N)=O)=C(O)[C@@H](N(C)C)[C@@H]3C[C@@H]1C2)CC(C)(C)C (some centres unmarked) | > 4 | < 4
CN(C)c1cc(CN2CCC(F)CC2)c(O)c2c1C[C@H]1C[C@H]3[C@H](N(C)C)C(O)=C(C(N)=O)C(=O)[C@@]3(O)C(O)=C1C2=O | < 4 | < 4
CN(C)c1cc(CN2CCC3CCCCC3C2)c(O)c2c1C[C@H]1C[C@H]3[C@H](N(C)C)C(O)=C(C(N)=O)C(=O)[C@@]3(O)C(O)=C1C2=O (some centres unmarked) | < 4 | < 4

Structure (SMILES) | MIC [1] [µg/mL] | MIC [2] [µg/mL]
CN(C)c1cc(CNCC(=O)C(C)(C)C)c(O)c2c1C[C@H]1C[C@H]3[C@H](N(C)C)C(O)=C(C(N)=O)C(=O)[C@@]3(O)C(O)=C1C2=O | > 4 | < 4
CN(C)c1cc(CN2CCc3ccccc3C2)c(O)c2c1C[C@H]1C[C@H]3[C@H](N(C)C)C(O)=C(C(N)=O)C(=O)[C@@]3(O)C(O)=C1C2=O | < 4 | < 4
CN(C)c1cc(CNC2C[C@H]3CC[C@@H]2C3)c(O)c2c1C[C@H]1C[C@H]3[C@H](N(C)C)C(O)=C(C(N)=O)C(=O)[C@@]3(O)C(O)=C1C2=O (some centres unmarked) | < 4 | < 4
CCc1cc(CNCCC(F)(F)F)c(O)c2c1C[C@H]1C[C@H]3[C@H](N(C)C)C(O)=C(C(N)=O)C(=O)[C@@]3(O)C(O)=C1C2=O | < 4 | < 4
CN(C)c1cc(CN2CCC(=O)CC2)c(O)c2c1C[C@H]1C[C@H]3[C@H](N(C)C)C(O)=C(C(N)=O)C(=O)[C@@]3(O)C(O)=C1C2=O | > 4 | < 4
CN(C)c1cc(CNCC23CC4CC(CC(C4)C2)C3)c(O)c2c1C[C@H]1C[C@H]3[C@H](N(C)C)C(O)=C(C(N)=O)C(=O)[C@@]3(O)C(O)=C1C2=O | < 4 | < 4
CN(C)c1cc(CN2CCCCCC2)c(O)c2c1C[C@H]1C[C@H]3[C@H](N(C)C)C(O)=C(C(N)=O)C(=O)[C@@]3(O)C(O)=C1C2=O | < 4 | < 4
CN(C)c1cc(CN2C3CCC2CC3)c(O)c2c1C[C@H]1C[C@H]3[C@H](N(C)C)C(O)=C(C(N)=O)C(=O)[C@@]3(O)C(O)=C1C2=O | > 4 | < 4
CC(C)N1CCC(Nc2ccc3c(c2O)C(=O)C2=C(O)[C@]4(O)C(=O)C(C(N)=O)=C(O)[C@@H](N(C)C)[C@@H]4C[C@@H]2C3)CC1 | > 4 | < 4
CN(C)c1cc(CN2CCC3(CCCC3)CC2)c(O)c2c1C[C@H]1C[C@H]3[C@H](N(C)C)C(O)=C(C(N)=O)C(=O)[C@@]3(O)C(O)=C1C2=O | < 4 | < 4
CCC1(C)CCN(Cc2cc(N(C)C)c3c(c2O)C(=O)C2=C(O)[C@]4(O)C(=O)C(C(N)=O)=C(O)[C@@H](N(C)C)[C@@H]4C[C@@H]2C3)CC1 | < 4 | < 4
CCN(CC)c1ccc(O)c2c1C[C@H]1C[C@H]3[C@H](N(C)C)C(O)=C(C(N)=O)C(=O)[C@@]3(O)C(O)=C1C2=O | < 4 | < 4
Cc1cc(CNCc2cc(N(C)C)c3c(c2O)C(=O)C2=C(O)[C@]4(O)C(=O)C(C(N)=O)=C(O)[C@@H](N(C)C)[C@@H]4C[C@@H]2C3)c(C(F)(F)F)o1 | < 4 | < 4
CN(C)c1cc(CNCCCC(F)(F)F)c(O)c2c1C[C@H]1C[C@H]3[C@H](N(C)C)C(O)=C(C(N)=O)C(=O)[C@@]3(O)C(O)=C1C2=O | < 4 | < 4
CC(=O)O[C@H]1[C@H]2C(=C(O)[C@]3(O)C(=O)C(C(N)=O)=C(O)[C@@H](N(C)C)[C@H]13)C(=O)c1c(ccc(CN3CCC(C(F)(F)F)CC3)c1O)[C@@H]2C | < 4 | < 4
CN(C)[C@@H]1C(O)=C(C(N)=O)C(=O)[C@@]2(O)C(O)=C3C(=O)c4c(ccc(NCCNC(C)(C)C)c4O)C[C@H]3C[C@@H]12 | < 4 | < 4
C[C@H]1c2ccc(CN3CCC4(CC3)OCCO4)c(O)c2C(=O)C2=C(O)[C@]3(O)C(=O)C(C(N)=O)=C(O)[C@@H](N(C)C)[C@@H]3[C@@H](O)[C@@H]21 | < 4 | < 4
